Laboratory results: patent US20210330611A1, “THERAPY FOR NEUROLOGICAL DISEASES/DISORDERS” (priority 2020, published 2021)
Where two headings read alike, the source gives them in different places. Where a SMILES comes first, the peptide text is derived from it. Bridges are numbered along the chain shown (N, C = ends). [ ]: non-standard residue; d: D form. The star is where a group is joined. Ileψ(thiazoline)Cys = CC[C@H](C)[C@H](N)C1=N[C@H](C(=O)*)CS1; dOrn = NCCC[C@@H](N)C(=O)O

Columns and labels:
[1] = system: fibrin- and LPS-induced microglia activation; test: cells; format: cell-based, rat; details: for inhibition at 10 µM: Rattus norvegicus
in vitro [2] = details: rat, Cell Toxicity IC50 (uM) [cFib assay]
primary rat microglia [3] = details: rat
in vitro [4] = details: rat
[5] = system: LPS-induced microglia activation; test: Image-based assay of LPS-induced microglia activation (HTS and dose response); format: cell-based, rat; details: Rattus norvegicus, Microglia; for inhibition at 10 µM: read-out: LPS % inhibition
[6] = system: fibrin-induced microglia activation; test: Image-based assay of fibrin-induced microglia activation (HTS and dose response); format: cell-based, rat; details: for IC50 / inhibition at 10 µM: Rattus norvegicus, Microglia; for inhibition at 10 µM: read-out: Fibrin % inhibition
primary rat microglia [7] = details: rat; remark: listed apart in the source
primary rat microglia [8] = test: Cell toxicity (dead cells, size <150 μm2) in coated fibrin (cFib) assay; details: primary microglia HTS;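 on Fibrin % cell toxicity: share of dead cells sized under 150 µm2 at 10 µM in fibrin-stimulated microglia HTS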
primary rat microglia [9] = test: Cell toxicity (dead cells, size <150 μm2) in LPS assay; details: for LPS % cell toxicity: primary microglia HTS, LPS stimulation, decreased size (<150 μm^2) as marker of toxicity; for IC50: read-out: Cell Toxicity IC50 (uM) [LPS assay], LPS assay
[10] = HTS of 1907 compounds, quadrant by fibrin and LPS inhibition
[11] = Microglia, HTS hit classification, read-out: Hit
[12] = hit classification in microglia HTS, read-out: Cherry-picked Hit (Suppl. Table 7)
[13] = quadrant by fibrin and LPS inhibition in HTS of 1907 compounds
[14] = 48 h, Table 1, dose response 0.001-20 μM, triplicates, primary rat microglia, 48 h, read-out: LPS IC50
[15] = 48 h, primary microglia HTS, LPS stimulation, increased cell size (>800 μm^2) as marker of activation
[16] = LPS-induced microglia activation, dose response, read-out: LPS IC50 (uM) (Suppl. Table 7)
[17] = dose response, LPS-induced microglia activation, read-out: LPS IC50
[18] = 48 h, Table 1, dose response 0.001-20 μM, triplicates, primary rat microglia, 48 h, read-out: Fibrin IC50
[19] = dose response, fibrin-induced microglia activation, read-out: Fibrin IC50
[20] = fibrin-induced microglia activation, dose response, read-out: Fibrin IC50 (uM) (Suppl. Table 7)
[21] = primary microglia HTS, fibrin stimulation, increased cell size (>800 μm^2) as marker of activation
[22] = classification by fibrin and LPS inhibition, HTS at 10 μM
[23] = primary microglia HTS, LPS stimulation, compounds at 10 μM
[24] = primary microglia HTS, fibrin stimulation, compounds at 10 μM
[25] = fibrin stimulation, decreased size (<150 μm^2) as marker of toxicity

Cc1cccc(C(=O)O)c1O [Hydroxytoluic acid, reference compound]
Quadrant (FIG. 5b) [1, 10]: Q3 | inhibition at 10 µM [1, 11]: > 50% | inhibition at 10 µM [1, 12]: > 50% | Quadrant (FIG. 5b) ([1]; Table 1, screen at 10 μM): Q3 | Quadrant (FIG. 5b) [1, 13]: Q3 | IC50 (in vitro [2]): > 20 µM | Fibrin % cell toxicity (primary rat microglia [3]): 1% | IC50 (in vitro [4]): > 20 µM | IC50 [5, 14]: > 20 µM | inhibition at 10 µM [5, 15]: 33% | IC50 [5, 16]: > 20 µM | IC50 [5, 17]: > 20 µM | IC50 [6, 18]: 20 µM | IC50 [6, 19]: 20 µM | IC50 [6, 20]: 20 µM | inhibition at 10 µM [6, 21]: 69% | LPS % cell toxicity (primary rat microglia [7]): 0%

C#C[C@]1(O)CC[C@H]2[C@@H]3CCc4cc(O)ccc4[C@H]3CC[C@@]21C [Ethinyl estradiol, reference compound]
Quadrant (FIG. 5b) [1, 10]: Q3 | inhibition at 10 µM [1, 11]: > 50% | inhibition at 10 µM [1, 12]: > 50% | Quadrant (FIG. 5b) ([1]; Table 1, screen at 10 μM): Q3 | Quadrant (FIG. 5b) [1, 22]: Q4 | Quadrant (FIG. 5b) [1, 13]: Q3 | IC50 (in vitro [2]): > 20 µM | Fibrin % cell toxicity (primary rat microglia [3]): 1% | IC50 (in vitro [4]): > 20 µM | IC50 [5, 14]: > 20 µM | inhibition at 10 µM [5, 15]: 37% | IC50 [5, 16]: > 20 µM | IC50 [5, 17]: > 20 µM | inhibition at 10 µM [5, 23]: 5% | IC50 [6, 18]: > 20 µM | IC50 [6, 19]: > 20 µM | IC50 [6, 20]: > 20 µM | inhibition at 10 µM [6, 24]: 9% | inhibition at 10 µM [6, 21]: 58%

COc1ccc(O)cc1 [Mequinol, reference compound]
Quadrant (FIG. 5b) [1]: Q2 | inhibition at 10 µM ([1]; Microglia, read-out: Cherry-picked Hit (Suppl. Table 7)): > 50% | inhibition at 10 µM ([1]; Microglia, read-out: Hit): > 50% | IC50 (in vitro [2]): > 20 µM | Fibrin % cell toxicity (primary rat microglia [3]): 2% | IC50 (in vitro [4]): > 20 µM | inhibition at 10 µM ([5]; 48 h): 76% | IC50 ([5]; 48 h, read-out: LPS IC50): > 20 µM | IC50 ([5]; read-out: LPS IC50 (uM)): > 20 µM | IC50 ([5]; read-out: LPS IC50 (uM) (Suppl. Table 7)): > 20 µM | IC50 ([6]; 48 h, read-out: Fibrin IC50): > 20 µM | inhibition at 10 µM [6]: 98% | IC50 ([6]; read-out: Fibrin IC50 (uM)): > 20 µM | IC50 ([6]; read-out: Fibrin IC50 (uM) (Suppl. Table 7)): > 20 µM | LPS % cell toxicity (primary rat microglia [7]): 1%

CC(=O)OCC(=O)[C@@]1(OC(C)=O)[C@@H](C)C[C@H]2[C@@H]3C[C@H](F)C4=CC(=O)C=C[C@]4(C)[C@@]3(F)[C@@H](O)C[C@@]21C [Diflorasone diacetate, reference compound]
Fibrin % cell toxicity (primary rat microglia [8]; fibrin assay, dead cells (size <150 μm2), compounds at 10 μM): 1% | Fibrin % cell toxicity (primary rat microglia [8]; [25]): 1% | Quadrant (FIG. 5b) [1, 10]: Q3 | inhibition at 10 µM ([1]; Microglia, Table 3, read-out: Cherry-picked Hit (Suppl. Table 7)): > 50% | inhibition at 10 µM [1, 11]: > 50% | Quadrant (FIG. 5b) ([1]; Table 1, screen at 10 μM): Q3 | Quadrant (FIG. 5b) ([1]; Table 3, screen at 10 μM): Q3 | Quadrant (FIG. 5b) [1, 22]: Q4 | Quadrant (FIG. 5b) ([1]; microglia HTS, Table 6): Q3 | Quadrant (FIG. 5b) [1, 13]: Q3 | IC50 (in vitro [2]; Table 3): > 20 µM | IC50 (in vitro [2]; cFib assay): > 20 µM | IC50 (in vitro [2]; cFib assay, Table 6): > 20 µM | IC50 (in vitro [4]): > 20 µM | IC50 [5, 14]: > 20 µM | inhibition at 10 µM [5, 15]: 39% | IC50 [5, 16]: > 20 µM | IC50 ([5]; Table 3, read-out: LPS IC50 (uM) (Suppl. Table 7)): > 20 µM | IC50 ([5]; Table 6, read-out: LPS IC50 (uM) (Suppl. Table 7)): > 20 µM | IC50 [5, 17]: > 20 µM | inhibition at 10 µM [5, 23]: 31% | LPS % cell toxicity (primary rat microglia [9]): 1% | IC50 (primary rat microglia [9]): > 20 µM | IC50 (primary rat microglia [9]; Table 6): > 20 µM | Fibrin Selectivity [6]: 2188 | Fibrin Selectivity (LOG10) [6]: 3.34 | IC50 [6, 18]: 0.01 µM | IC50 ([6]; Table 3, read-out: Fibrin IC50 (uM) (Suppl. Table 7)): 0.01 µM | IC50 ([6]; Table 6, read-out: Fibrin IC50 (uM) (Suppl. Table 7)): 0.01 µM | IC50 [6, 19]: 0.01 µM | IC50 [6, 20]: 0.01 µM | inhibition at 10 µM [6, 24]: 42% | inhibition at 10 µM [6, 21]: 76% | Fibrin Selectivity (LOG10) ([6]; fibrin vs LPS, LOG10, Table 6): 3.34 | Fibrin Selectivity ([6]; fibrin vs LPS, Table 6): 2188 | LPS % cell toxicity (primary rat microglia [7]): 0%

CC[C@H](C)[C@H](N)C1=N[C@H](C(=O)N[C@@H](CC(C)C)C(=O)N[C@H](CCC(=O)O)C(=O)N[C@H](C(=O)N[C@H]2CCCCNC(=O)[C@H](CC(N)=O)NC(=O)[C@@H](CC(=O)O)NC(=O)[C@H](Cc3cnc[nH]3)NC(=O)[C@@H](Cc3ccccc3)NC(=O)[C@H]([C@@H](C)CC)NC(=O)[C@@H](CCCN)NC2=O)[C@@H](C)CC)CS1 [Bacitracin, reference compound] ({Ileψ(thiazoline)Cys}-L[dE]IK[dOrn]I[dF]H[dD]N; lactam 4-C)
Fibrin % cell toxicity (primary rat microglia [8]; fibrin assay, dead cells (size <150 μm2)): 0% | Fibrin % cell toxicity (primary rat microglia [8]; [25]): 1% | Quadrant (FIG. 5b) [1, 10]: Q3 | inhibition at 10 µM [1, 11]: > 50% | inhibition at 10 µM [1, 12]: > 50% | Quadrant (FIG. 5b) ([1]; Table 1, screen at 10 μM): Q3 | Quadrant (FIG. 5b) [1, 13]: Q3 | Quadrant (FIG. 5b) ([1]; quadrant by fibrin and LPS inhibition, HTS at 10 μM): Q4 | IC50 (in vitro [2]; cFib assay): > 20 µM | IC50 (in vitro [4]): > 20 µM | IC50 [5, 14]: > 20 µM | inhibition at 10 µM [5, 15]: 21% | IC50 [5, 16]: > 20 µM | IC50 [5, 17]: > 20 µM | inhibition at 10 µM [5, 23]: 6% | LPS % cell toxicity (primary rat microglia [9]): 0% | IC50 [6, 18]: > 20 µM | IC50 [6, 19]: > 20 µM | IC50 [6, 20]: > 20 µM | inhibition at 10 µM [6, 24]: -7% | inhibition at 10 µM [6, 21]: 82% | LPS % cell toxicity (primary rat microglia [7]): 1%
